Laboratory results published in USRE48461E1, “Modulation of androgen receptor expression” (Ionis Pharmaceuticals, Inc., priority 2012, dated 2021).

Assays:
PSA mRNA = experiment: PSA expression in VCaP cells; type: cell-based, human; conditions: RNAiMax, 48 hrs
Experimental: Cells were plated at 10,000 cells per well. […] After an incubation period of 48 hrs, RNA levels of full length AR, the V7 variant, PSA and TMPRSS2 were measured.
After an incubation period of 48 hrs, RNA levels of full length AR, the V7 variant, PSA and TMPRSS2 were measured. The data is presented in Tables 108 expressed as percent expression of gene levels compared to the untreated control.
Cells were plated at 15,000 cells per well and cultured in CSS media for 16 hours. […] After 4 hrs, 1 nM DHT was added. […] After an incubation period of 48 hrs, RNA levels of AR, PSA and TMPRSS2 were measured.

MDA-MB-453 tumor = experiment: Tumor volume in MDA-MB-453 breast cancer orthotopic model; type: in vivo, NSG mice; conditions: Study 2, MDA-MB-453 model, NSG mice, 50 mg/kg s.c. 5 days per week for 2 weeks
[1] = system: prostate-specific antigen (PSA) mRNA; experiment: Time-course PSA expression in C4-2B cells; type: cell-based, human
Experimental: C4-2B cells were plated at 1,000 cells per well in complete medium. […] ISIS 549148 was included as a negative control. […] After a treatment period of 8 hours, 24 hours, and 48 hours, AR expression was measured with primer probe set hAR-LTS00943. Results are presented in Tables 70-72 as percent expression of AR, relative to non-treated cells.
Expression analysis of prostate-specific antigen (PSA) and TMPRSS2 were also analyzed. Results are presented in Tables 73-75 as percent inhibition of PSA expression and Tables 76-78 as percent inhibition of TMPRSS2 expression, relative to non-treated cells.

AR mRNA = AR mRNA levels in LMR20 cells (with/without DHT or R1881); type: cell-based, human; conditions: with or without DHT/R1881
Experimental: LMR20 cells were plated at 1,500 cells per well in phenol red-free medium with CSS.

[2] = system: prostate-specific antigen (PSA) mRNA; experiment: PSA mRNA levels in LMR20 cells; type: cell-based, human; conditions: with or without DHT/R1881
Experimental: LMR20 cells were plated at 1,500 cells per well in phenol red-free medium with CSS. […] Results are presented in Tables 43-45 as mRNA levels expressed as a percentage of the baseline values. mRNA levels may be lowered or increased after treatment.

LNCaP cells = experiment: LNCaP cell proliferation, ASO in combination with MDV3100 (Example 20); type: cell-based, human; conditions: for Proliferation (% untreated control) in LNCaP without MDV-3100: 5 days
Experimental: LNCaP cells were plated at 1,000 cells per well. […] ISIS 549148 was included as a negative control. […] After a treatment period of 5 days, the proliferative capacity of the cancer cells was measured with CellTiter 96® AQueous One or CellTiter-Glo® Solution Cell Proliferation kit (Promega), following the manufacturer's instructions. […]

TMPRSS2 mRNA = experiment: TMPRSS2 expression in C4-2B cells (Example 30); type: cell-based, human; conditions: 48 hrs
Experimental: Cells were plated at 1,000 cells per well. […] ISIS 549148 was included as a negative control. […] After an incubation period of 48 hrs, RNA levels of AR, PSA and TMPRSS2 were measured.
Cells were plated at 2,000 cells per well and cultured in CSS media with 1 nM DHT. […] ISIS 549148 was included as a negative control. […] After an incubation period of 48 hrs, RNA levels of AR, PSA and TMPRSS2 were measured. In the absence of DHT, AR expression in C4-2 cells was 188%, PSA expression was 43% and TMPRSS2 expression was 27% compared to the untreated control.

22RV1 cells = experiment: 22RV1 apoptosis (Caspase-glo 3/7); type: cell-based, human; conditions: 72 hours; for Apoptosis (% untreated control): 22RV1 cells
Experimental: After a treatment period of 72 hours in complete medium or CSS+DHT medium, apoptosis of the cancer cells was measured with Caspase-glo 3/7 assay kit (Promega). Results are presented in Tables 131 and 132 as percent apoptosis of the cells, relative to non-treated cells.

TTGATTTAATGGTTGC [ISIS 560131] (MOE and (S)-cEt gapmer chemistry, further chemistry not given here) [targets intron 1]
Percent inhibition of PSA expression (PSA mRNA; CSS + DHT medium, 1.34 nM): 0%
Percent inhibition of PSA expression (PSA mRNA; CSS + DHT medium, 4.0 nM): 35%
Percent inhibition of PSA expression (PSA mRNA; CSS + DHT medium, 13.4 nM): 69%
Percent inhibition of PSA expression (PSA mRNA; CSS + DHT medium, 40 nM): 73%
Percent inhibition of PSA expression (PSA mRNA; complete medium, 1.34 nM): 2%
Percent inhibition of PSA expression (PSA mRNA; complete medium, 4.0 nM): 24%
Percent inhibition of PSA expression (PSA mRNA; complete medium, 13.4 nM): 35%
Percent inhibition of PSA expression (PSA mRNA; complete medium, 40 nM): 46%
Tumor volumes (MDA-MB-453 tumor; Day 0): 144
Tumor volumes (MDA-MB-453 tumor; Day 8): 261
Tumor volumes (MDA-MB-453 tumor; Day 13): 243
Tumor volumes (MDA-MB-453 tumor; Day 20): 204
Tumor volumes (MDA-MB-453 tumor; Day 23): 232
Tumor volumes (MDA-MB-453 tumor; Day 27): 233
Tumor volumes (MDA-MB-453 tumor; Day 29): 258
Percent inhibition of PSA expression compared to the control group in 8 hours ([1]; 0.04 μM): 12%
Percent inhibition of PSA expression compared to the control group in 24 hours ([1]; 0.04 μM): 27%
Percent inhibition of PSA expression compared to the control group in 48 hours ([1]; 0.04 μM): 20%
Percent inhibition of PSA expression compared to the control group in 8 hours ([1]; 0.2 μM): 0%
Percent inhibition of PSA expression compared to the control group in 24 hours ([1]; 0.2 μM): 46%
Percent inhibition of PSA expression compared to the control group in 48 hours ([1]; 0.2 μM): 61%
Percent inhibition of PSA expression compared to the control group in 8 hours ([1]; 1 μM): 3%
Percent inhibition of PSA expression compared to the control group in 24 hours ([1]; 1 μM): 56%
Percent inhibition of PSA expression compared to the control group in 48 hours ([1]; 1 μM): 71%
Percent inhibition of PSA expression compared to the control group in 8 hours ([1]; 5.0 μM): 1%
Percent inhibition of PSA expression compared to the control group in 24 hours ([1]; 5.0 μM): 60%
Percent inhibition of PSA expression compared to the control group in 48 hours ([1]; 5.0 μM): 80%
PSA expression ([1]; time course): reduced PSA and TMPRSS2 expression in the cells relative to the control set at the 24 hr and 48 hr time points
AR mRNA levels in LMR20 cells (AR mRNA): reduced AR mRNA levels in LMR20 cells, treated with or without either AR agonist, in a dose dependent manner relative to the baseline
PSA mRNA levels in LMR20 cells [2]: reduced PSA levels and TMPRSS2 more extensively than the LNA gapmer ISIS 554221 or MDV3100
Proliferation (% untreated control) in LNCaP with 0.08 μM MDV-3100 (LNCaP cells; ASO dose 0.04 μM + 0.08 μM MDV-3100): 59 % untreated control
Proliferation (% untreated control) in LNCaP with 0.4 μM MDV-3100 (LNCaP cells; ASO dose 0.04 μM + 0.4 μM MDV-3100): 50 % untreated control
Proliferation (% untreated control) in LNCaP with 2.0 μM MDV-3100 (LNCaP cells; ASO dose 0.04 μM + 2.0 μM MDV-3100): 42 % untreated control
Proliferation (% untreated control) in LNCaP with […] MDV-3100 (LNCaP cells; ASO dose 0.04 μM + […] MDV-3100): 71 % untreated control
Proliferation (% untreated control) in LNCaP without MDV-3100 (LNCaP cells; ASO dose 0.04 μM): 76 % untreated control
Proliferation (% untreated control) in LNCaP with 0.08 μM MDV-3100 (LNCaP cells; ASO dose 0.08 μM + 0.08 μM MDV-3100): 99 % untreated control
Proliferation (% untreated control) in LNCaP with 0.4 μM MDV-3100 (LNCaP cells; ASO dose 0.08 μM + 0.4 μM MDV-3100): 68 % untreated control
Proliferation (% untreated control) in LNCaP with 2.0 μM MDV-3100 (LNCaP cells; ASO dose 0.08 μM + 2.0 μM MDV-3100): 45 % untreated control
Proliferation (% untreated control) in LNCaP with […] MDV-3100 (LNCaP cells; ASO dose 0.08 μM + […] MDV-3100): 103 % untreated control
Proliferation (% untreated control) in LNCaP without MDV-3100 (LNCaP cells; ASO dose 0.08 μM): 106 % untreated control
Proliferation (% untreated control) in LNCaP with 0.08 μM MDV-3100 (LNCaP cells; ASO dose 0.2 μM + 0.08 μM MDV-3100): 48 % untreated control
Proliferation (% untreated control) in LNCaP with 0.4 μM MDV-3100 (LNCaP cells; ASO dose 0.2 μM + 0.4 μM MDV-3100): 40 % untreated control
Proliferation (% untreated control) in LNCaP with 2.0 μM MDV-3100 (LNCaP cells; ASO dose 0.2 μM + 2.0 μM MDV-3100): 38 % untreated control
Proliferation (% untreated control) in LNCaP with […] MDV-3100 (LNCaP cells; ASO dose 0.2 μM + […] MDV-3100): 49 % untreated control
Proliferation (% untreated control) in LNCaP without MDV-3100 (LNCaP cells; ASO dose 0.2 μM): 50 % untreated control
Proliferation (% untreated control) in LNCaP with 0.08 μM MDV-3100 (LNCaP cells; ASO dose 1.0 μM + 0.08 μM MDV-3100): 27 % untreated control
Proliferation (% untreated control) in LNCaP with 0.4 μM MDV-3100 (LNCaP cells; ASO dose 1.0 μM + 0.4 μM MDV-3100): 26 % untreated control
Proliferation (% untreated control) in LNCaP with 2.0 μM MDV-3100 (LNCaP cells; ASO dose 1.0 μM + 2.0 μM MDV-3100): 23 % untreated control
Proliferation (% untreated control) in LNCaP with […] MDV-3100 (LNCaP cells; ASO dose 1.0 μM + […] MDV-3100): 25 % untreated control
Proliferation (% untreated control) in LNCaP without MDV-3100 (LNCaP cells; ASO dose 1.0 μM): 26 % untreated control
synergy with MDV3100 (LNCaP cells; LNCaP cells): synergistic with MDV3100
cell proliferation inhibited, combination (LNCaP cells; LNCaP cells, 0.04 μM ASO in combination with 0.08 μM MDV3100): 41%
inhibited cell proliferation, ASO alone (LNCaP cells; LNCaP cells, ASO alone at 0.04 μM): 24%
Percent inhibition of TMPRSS2 expression (TMPRSS2 mRNA; CSS + DHT medium, 0.04 μM): 0%
Percent inhibition of TMPRSS2 expression (TMPRSS2 mRNA; CSS + DHT medium, 0.2 μM): 34%
Percent inhibition of TMPRSS2 expression (TMPRSS2 mRNA; CSS + DHT medium, 1 μM): 60%
Percent inhibition of TMPRSS2 expression (TMPRSS2 mRNA; CSS + DHT medium, 5.0 μM): 76%
Percent inhibition of TMPRSS2 expression (TMPRSS2 mRNA; complete medium, 0.04 μM): 46%
Percent inhibition of TMPRSS2 expression (TMPRSS2 mRNA; complete medium, 0.2 μM): 71%
Percent inhibition of TMPRSS2 expression (TMPRSS2 mRNA; complete medium, 1 μM): 72%
Percent inhibition of TMPRSS2 expression (TMPRSS2 mRNA; complete medium, 5.0 μM): 75%
Apoptosis (% untreated control) (22RV1 cells; CSS + DHT medium, 1.34 nM): 121 % untreated control
Apoptosis (% untreated control) (22RV1 cells; CSS + DHT medium, 4.0 nM): 113 % untreated control
Apoptosis (% untreated control) (22RV1 cells; CSS + DHT medium, 13.4 nM): 172 % untreated control
Apoptosis (% untreated control) (22RV1 cells; CSS + DHT medium, 40 nM): 518 % untreated control
Apoptosis (% untreated control) (22RV1 cells; complete medium, 1.34 nM): 99 % untreated control
Apoptosis (% untreated control) (22RV1 cells; complete medium, 4.0 nM): 127 % untreated control
Apoptosis (% untreated control) (22RV1 cells; complete medium, 13.4 nM): 131 % untreated control
Apoptosis (% untreated control) (22RV1 cells; complete medium, 40 nM): 566 % untreated control
apoptosis of 22RV1 cells (22RV1 cells; complete or CSS+DHT medium): increased apoptosis of the cells in a dose dependent compared to the control
